Measurements as given in ChEMBL document CHEMBL1201862, “PubChem BioAssay data set” (2004).
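Five concentrations, 48 hours, 96-well plates. GI50 = concentration required for 50% inhibition of growth.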 Active and inactive are the calls of the source. No stated cut-off is given here; in the data, active = GI50 up to about 1.1 µM and inactive = higher.

Assays:
Assay in all cases: NCI tumour cell line growth inhibition, 48 h
[1] = system: COLO 205
[2] = system: SK-MEL-2
[3] = system: SF-268
[4] = system: OVCAR-5
[5] = system: SF-539
[6] = system: 786-0
[7] = system: LOX IMVI
[8] = system: EKVX
[9] = system: SF-295
[10] = system: SNB-75
[11] = system: HL-60
[12] = system: UACC-62
[13] = system: TK-10
[14] = system: CCRF-CEM
[15] = system: BT-549
[16] = system: HCC 2998
[17] = system: ACHN
[18] = system: SK-MEL-5
[19] = system: Hs-578T
[20] = system: UACC-257
[21] = system: A549
[22] = system: SN12C
[23] = system: CAKI-1
[24] = system: MOLT-4
[25] = system: U-251
[26] = system: HOP-92
[27] = system: OVCAR-4
[28] = system: K562
[29] = system: RPMI-8226
[30] = system: DU-145
[31] = system: IGROV-1
[32] = system: MCF7
[33] = system: NCI-H23
[34] = system: Malme-3M
[35] = system: SR
[36] = system: UO-31
[37] = system: NCI-H522
[38] = system: PC-3
[39] = system: NCI-H226
[40] = system: T47D
[41] = system: HCT-15
[42] = system: HT-29
[43] = system: RXF 393
[44] = system: MDA-N
[45] = system: M14
[46] = system: KM12
[47] = system: NCI/ADR-RES
[48] = system: OVCAR-3
[49] = system: NCI-H460
[50] = system: SK-OV-3
[51] = system: HCT-116
[52] = system: MDA-MB-231
[53] = system: HOP-62
[54] = system: SW-620
[55] = system: SNB-19
[56] = system: SK-MEL-28
[57] = system: OVCAR-8
[58] = system: MDA-MB-435
[59] = system: A498

Measured: GI50

O=C(/C=C/c1cccs1)c1cccc(C(=O)/C=C/c2cccs2)n1
inactive: [1] > 100 µM | [2] > 100 µM | [3] 21.5 µM | [4] > 73.1 µM | [5] 6 µM | [6] 6.81 µM | [7] 2.05 µM | [8] > 100 µM | [9] 76 µM | [10] 65.9 µM | [11] 7.41 µM | [12] > 31.2 µM | [13] > 100 µM | [14] 2.82 µM | [15] 42.8 µM | [16] > 100 µM | [17] 11.5 µM | [18] > 100 µM | [19] 23.8 µM | [20] > 100 µM | [21] > 84.3 µM | [22] 19.9 µM | [23] 61.4 µM | [24] 2.29 µM | [25] 9.1 µM | [26] > 100 µM | [27] > 100 µM | [28] 3.93 µM | [29] 2.97 µM | [30] > 81.3 µM | [31] 27.7 µM | [32] 1.25 µM | [33] 31 µM | [34] > 100 µM | [35] 2.26 µM | [36] 21.3 µM | [37] 22.1 µM | [38] 36.3 µM | [39] > 100 µM | [40] 19.4 µM | [42] 6.21 µM | [43] > 48.9 µM | [44] 28.2 µM | [45] > 91.2 µM | [46] 6.43 µM | [47] > 60 µM | [48] 42.2 µM | [49] > 100 µM | [50] > 100 µM | [51] 2.82 µM | [52] 63.2 µM | [53] 25.4 µM | [54] 4.05 µM | [55] 19.3 µM | [56] 53.2 µM | [57] 3.68 µM | [58] 52.7 µM
24 µM: [41]

CN1CCC23c4c5ccc(O)c4OC2c2[nH]c4ccccc4c2CC3(O)C1C5 (centres undefined)
25.6 µM: [41]
inactive: [1] 17.1 µM | [2] 20.6 µM | [3] 32.1 µM | [4] > 100 µM | [6] 18.7 µM | [7] 21.5 µM | [8] 92.9 µM | [9] 52.4 µM | [10] 36.7 µM | [12] 23.4 µM | [13] 18.9 µM | [14] 22 µM | [15] 45.1 µM | [16] 17.5 µM | [17] 24.4 µM | [18] 13.5 µM | [19] 24.2 µM | [20] 18.5 µM | [21] 53 µM | [22] 70.5 µM | [23] 47.1 µM | [24] 18.6 µM | [25] 22.5 µM | [26] 16.3 µM | [27] 38.5 µM | [59] 18.8 µM | [28] 14 µM | [29] 19.5 µM | [30] 97.7 µM | [31] 66.4 µM | [32] 36.3 µM | [33] > 100 µM | [34] 20.6 µM | [35] 26.6 µM | [36] 15.2 µM | [37] 37 µM | [38] 41.6 µM | [40] 20.8 µM | [42] 31.9 µM | [43] 23.5 µM | [44] 20 µM | [45] 17.7 µM | [46] 51.2 µM | [47] > 100 µM | [48] 42.6 µM | [49] 29.2 µM | [50] > 100 µM | [51] 35.4 µM | [52] 31.5 µM | [53] > 100 µM | [54] 22.4 µM | [55] 65.5 µM | [56] 13.7 µM | [57] 54.8 µM | [58] 18.2 µM
